Data taken from ChEMBL document CHEMBL1201862, “PubChem BioAssay data set” (2004).
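Values below derive from 48-hour exposures of cells grown in 96-well plates, with endpoints linearly interpolated between the two concentrations bracketing the appropriate inhibition level. At the GI50, growth is halved.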 The source made the active and inactive calls. No stated cut-off is given here; in the data, active = GI50 up to about 1.1 µM and inactive = higher.

Legend:
Assay in all cases: DTP human tumour cell line panel, 48 h
[1] = test system: SW-620
[2] = test system: SK-MEL-28
[3] = test system: OVCAR-4
[4] = test system: UACC-257
[5] = test system: CAKI-1
[6] = test system: M14
[7] = test system: 786-0
[8] = test system: OVCAR-3
[9] = test system: MOLT-4
[10] = test system: HOP-92
[11] = test system: SNB-75
[12] = test system: HCC 2998
[13] = test system: SF-295
[14] = test system: TK-10
[15] = test system: U-251
[16] = test system: HOP-62
[17] = test system: KM12
[18] = test system: SK-OV-3

Measured: GI50

Sc1nnc(COc2ccc(Cl)cc2Cl)[nH]1
inactive: [1] > 100 µM | [2] > 100 µM | [3] > 100 µM | [4] > 100 µM | [5] > 100 µM | [6] > 100 µM | [7] > 100 µM | [8] > 100 µM | [9] > 100 µM | [10] > 100 µM | [11] > 100 µM | [12] > 100 µM | [13] > 100 µM | [14] > 100 µM | [15] > 100 µM

C#CC1(O)CC(c2ccccc2)N(C)C(c2ccccc2)C1 (stereo unspecified)
inactive: [1] > 100 µM | [2] > 100 µM | [3] > 100 µM | [16] > 100 µM | [4] > 100 µM | [5] > 100 µM | [6] > 100 µM | [7] > 100 µM | [8] > 100 µM | [9] > 100 µM | [10] > 100 µM | [11] > 100 µM | [17] > 100 µM | [12] > 100 µM | [13] > 100 µM | [18] > 100 µM | [14] > 100 µM | [15] > 100 µM

O=S1(=O)OCCOS(=O)(=O)C1Br
inactive: [1] > 100 µM | [2] > 100 µM | [3] > 100 µM | [16] > 100 µM | [4] > 100 µM | [5] > 100 µM | [6] > 100 µM | [7] > 100 µM | [8] > 100 µM | [9] > 100 µM | [10] > 100 µM | [11] > 100 µM | [17] > 100 µM | [12] > 100 µM | [13] 86.5 µM | [18] > 100 µM | [14] > 100 µM

COc1cccc(NC(=O)/C(CS(=O)(=O)CCC(C(C)=O)C(C)=O)=N/NC(C)(C)C)c1
inactive: [1] > 100 µM | [2] > 100 µM | [3] > 100 µM | [16] > 100 µM | [4] > 100 µM | [5] > 100 µM | [6] > 100 µM | [7] > 100 µM | [8] > 100 µM | [9] > 100 µM | [10] > 100 µM | [11] > 100 µM | [17] > 100 µM | [12] > 100 µM | [18] > 100 µM | [14] > 100 µM | [15] > 100 µM

COc1ccc(OC)c(/C=C(/C#N)c2ccccc2)c1
inactive: [1] 6.46 µM | [2] 23.4 µM | [3] 15.9 µM | [16] 40.3 µM | [5] 35.1 µM | [6] 33.3 µM | [7] 19 µM | [8] 28.2 µM | [9] 12.9 µM | [10] 17.7 µM | [11] 10.8 µM | [17] 10 µM | [12] > 10 µM | [13] 39.4 µM | [18] 50 µM | [14] 28.4 µM | [15] 31.8 µM

CC(OC1CC(=O)CC2C(=O)C=CC(=O)C12)c1ccccc1 (stereo unspecified)
inactive: [1] 13.8 µM | [2] 20.8 µM | [3] 18.3 µM | [16] 24 µM | [4] 19.1 µM | [5] 16.9 µM | [6] 18.7 µM | [7] 13.9 µM | [8] 19.2 µM | [9] 4.97 µM | [10] 1.42 µM | [11] 25.6 µM | [17] 16.6 µM | [12] 16.1 µM | [13] 16.6 µM | [18] > 42.2 µM | [14] 17.8 µM | [15] 14.5 µM

NC(=S)Nc1nnc(-c2ccc(-c3nnc(NC(N)=S)o3)cc2)o1
inactive: [1] > 100 µM | [2] > 100 µM | [3] > 100 µM | [16] > 100 µM | [4] > 100 µM | [5] > 100 µM | [6] > 100 µM | [7] > 100 µM | [8] > 100 µM | [9] > 100 µM | [10] > 100 µM | [11] > 100 µM | [17] > 100 µM | [12] > 100 µM | [13] > 100 µM | [18] > 100 µM | [14] > 100 µM | [15] > 100 µM

Cc1ccc(S(=O)(=O)N/N=c2\c(C)c(C3=NS(=O)(=O)c4cc(S(N)(=O)=O)c(Cl)cc4N3)oc3c(Cl)cc(Cl)cc23)cc1
inactive: [1] 6.87 µM | [2] > 100 µM | [3] > 100 µM | [16] > 100 µM | [4] > 100 µM | [5] > 100 µM | [6] > 100 µM | [7] > 100 µM | [8] > 100 µM | [9] > 100 µM | [10] 27.7 µM | [11] > 100 µM | [17] > 100 µM | [12] > 100 µM | [13] > 100 µM | [18] > 100 µM | [14] > 100 µM | [15] 23.5 µM

Cc1ccc(S(=O)(=O)OC2CSSCC2OS(=O)(=O)c2ccc(C)cc2)cc1 (stereo unspecified)
inactive: [1] 14.4 µM | [2] 16.6 µM | [3] 11.2 µM | [16] 20.3 µM | [4] 10.2 µM | [5] 12.5 µM | [6] 12.6 µM | [7] 12.6 µM | [8] 13.3 µM | [9] 2.59 µM | [10] 11.4 µM | [11] 12.8 µM | [17] 14.1 µM | [12] 20.9 µM | [13] 16.2 µM | [18] 20.5 µM | [14] 15.3 µM | [15] 14 µM

COC(=O)CCC1(NS(=O)(=O)c2ccc(C)cc2)CCC(C(C)(C)C)CC1 (stereo unspecified)
inactive: [1] 16.7 µM | [2] 11.6 µM | [3] 11.2 µM | [16] 17.3 µM | [4] 6.95 µM | [5] 13.6 µM | [6] 12.7 µM | [7] 14.4 µM | [8] 10.3 µM | [9] 6.15 µM | [10] 7.06 µM | [11] 14.3 µM | [17] 13.1 µM | [12] 14.6 µM | [13] 11.8 µM | [18] 40.6 µM | [14] 18 µM | [15] 14.3 µM

COC(=O)C1[C@H](c2ccc3c(c2)OCO3)OC(=O)[C@]1(C(=O)OC)C(=O)c1ccc(OC)c(OC)c1 (stereo partly specified)
inactive: [1] 39.3 µM | [3] > 100 µM | [16] > 100 µM | [4] 40.2 µM | [5] > 100 µM | [6] 70.1 µM | [7] > 100 µM | [8] 75.5 µM | [9] 20.5 µM | [10] 44.4 µM | [11] 90.4 µM | [17] 41.3 µM | [12] 34.7 µM | [13] > 100 µM | [18] > 100 µM | [14] > 100 µM | [15] 44.9 µM
